Results: patent US5521319A, “Biotinylation reagent and method of use thereof” (priority 1993, dated 1996)
≈ marks a conversion by molar mass, not a printed value. Each block holds one compound with its values, some of them ahead of it.

Assays:
[1] = Solubility of biotinylation reagents at 20° C.; assay type: physicochemical; conditions: for Solubility in DMF / Solubility in methanol / Solubility in water / Solubility in dichloromethane: 20° C.
Text: [table 1: the next 15 blocks are its lines as printed, fixed-width]

[2] = tested on: TSH; test: Electrochemiluminescence immunological determination of TSH with biotinylated antibody, ruthenium-labelled F(ab')2 and streptavidin magnetic particles
Text: (§1) After dialysis against 25 mmol/l potassium phosphate/50 mmol/l sodium chloride pH 7.0, the product is lyophilized.

[3] = tested on: TSH; test: Immunological determination of TSH using streptavidin magnetic particles and photometric signal measurement
Text: as §1

[4] = cited from earlier work; for Solubility in organic solvents: organic solvents with the exception of DMSO and DMF
[5] = electrochemiluminescence measurement, vs biotin-NHS

Structure (SMILES): O=C(CCCC[C@@H]1SC[C@@H]2NC(=O)N[C@@H]21)NCCCCCC(=O)ON1C(=O)CCC1=O [NHS-LC-biotin]
Solubility in DMF [1]: 20000 µg/mL (≈ 44 mM) | Solubility in methanol [1]: 20000 µg/mL (≈ 44 mM) | Solubility in water ([1]; water): 2000 µg/mL (≈ 4.4 mM)

Solubility in DMF [1]: 20000 µg/mL (≈ 31.9 mM) | Solubility in dichloromethane ([1]; dichloromethane): 10000 µg/mL (≈ 15.9 mM) | Solubility in methanol [1]: 20000 µg/mL (≈ 31.9 mM) | Solubility in water ([1]; water): 7000 µg/mL (≈ 11.2 mM) | Solubility in strongly polar (water) and non-polar (dichloromethane) solvents ([1]; water, dichloromethane): good solubility
Structure (SMILES): O=C(CCCCCCC(=O)ON1C(=O)CCC1=O)NCCOCCOCCNC(=O)CCCC[C@@H]1SC[C@@H]2NC(=O)N[C@@H]21 [biotin-DDS, biotinoyl-amino-3,6-dioxaoctanyl-aminocarbonyl-heptanoic acid-N-hydroxysuccinimide ester]
Solubility spectrum compared with known reagents ([1]; compared with biotinylation reagents of the state of the art): considerably broader solubility spectrum than known compounds | Performance of conjugates produced with the reagent, better than with biotin-NHS ([2]; electrochemiluminescence and other immunological tests with spherical solid phases, vs biotin-NHS): about 3.5 fold | Performance of conjugates produced with the reagent, better than with biotin-X-NHS ([2]; electrochemiluminescence and other immunological tests with spherical solid phases, vs biotin-X-NHS): 1.3 fold | Signal yield of antibodies biotinylated via biotin-DDS, higher than via biotin-X-NHS ([2]; electrochemiluminescence measurement, vs antibodies biotinylated via biotin-X-NHS): 25.7% | Signal of biotinylated antibodies compared with spacer-free biotin-NHS [2, 5]: considerably higher signals | Photometric signal of labelled antibody compared with biotin-X-NHS ([3]; magnetic particle test with antibody-POD conjugate, vs antibody biotinylated with biotin-X-NHS): significantly higher signals | Degree of biotinylation giving the signal optimum ([3]; photometric measurement): signal optimum at a lower degree of biotinylation

Structure (SMILES): O=C1N[C@H]2[C@H](CS[C@H]2CCCCC(=O)ON2C(=O)CCC2=O)N1 [biotin-NHS, biotin-N-hydroxysuccinimide esters]
Solubility in organic solvents [4]: only moderately soluble | Solubility in water and aqueous buffer solutions [4]: only moderate solubility

Structure (SMILES): O=C(CCCC[C@@H]1SC[C@@H]2NC(=O)N[C@@H]21)NCCCCCC(=O)ON1C(=O)CCC1=O [biotin-X-NHS, biotinoylaminocaproic acidN-hydroxysuccinimide ester]
Solubility in DMF [1]: 10000 µg/mL (≈ 22 mM) | Solubility in dichloromethane ([1]; dichloromethane): < 1000 µg/mL | Solubility in methanol [1]: 10000 µg/mL (≈ 22 mM) | Solubility in water ([1]; water): 10000 µg/mL (≈ 22 mM) | Signal of biotinylated antibodies compared with spacer-free biotin-NHS [2, 5]: considerably higher signals | Solubility in organic solvents [4]: only moderately soluble | Solubility in water and aqueous buffer solutions [4]: only moderate solubility

Structure (SMILES): O=C(CCCC[C@@H]1SC[C@@H]2NC(=O)N[C@@H]21)NCCCCCC(=O)ON1C(=O)CC(S(=O)(=O)O)C1=O (some centres unmarked) [sulfo-NHS-LC-biotin]
Solubility in an aqueous medium ([4]; aqueous medium): good solubility | Solubility in organic solvents in the required concentrations ([4]; organic solvents, in the required concentrations): not soluble
